Calls of active or inactive are those of the source. The calls are words filed in the database; no cut-off is given here.
Assays:
L02 [1] = test: Hepatoprotective activity against APAP-induced cell injury in human HL-7702 cells assessed as increase in survival rate at 10 uM pre-incubated for 24 hrs before APAP addition and measured 6 hrs post APAP challenge by MTT assay; assay type: functional, cell-based
L02 [2] = test: Hepatoprotective activity against APAP-induced cell injury in human HL-7702 cells assessed as increase in survival rate at 1 uM pre-incubated for 24 hrs before APAP addition and measured 6 hrs post APAP challenge by MTT assay; assay type: functional, cell-based
L02 [3] = test: Effect on APAP-induced depletion of GSH levels in human HL-7702 cells assessed as GSH level at 1 uM by colorimetric method (reference value: 59.68 +/- 1.16 au); assay type: functional
L02 [4] = test: Hepatoprotective activity against APAP-induced cell injury in human HL-7702 cells assessed as survival rate at 10 uM pre-incubated for 24 hrs before APAP addition and measured 6 hrs post APAP challenge by MTT assay (reference value: 59.13%); assay type: functional; conditions: read-out: Survival
L02 [5] = test: Hepatoprotective activity against APAP-induced cell injury in human HL-7702 cells assessed as survival rate at 1.25 uM pre-incubated for 24 hrs before APAP addition and measured 6 hrs post APAP challenge by MTT assay (reference value: 60.49 +/- 0.28%); assay type: functional; conditions: read-out: Survival
L02 [6] = test: Hepatoprotective activity against APAP-induced cell injury in human HL-7702 cells assessed as survival rate at 5 uM pre-incubated for 24 hrs before APAP addition and measured 6 hrs post APAP challenge by MTT assay (reference value: 60.49 +/- 0.28%); assay type: functional; conditions: read-out: Survival
L02 [7] = test: Hepatoprotective activity against APAP-induced cell injury in human HL-7702 cells assessed as increase in survival rate at 0.1 uM pre-incubated for 24 hrs before APAP addition and measured 6 hrs post APAP challenge by MTT assay; assay type: functional, cell-based
Cytochrome P450 3A4 = Cytochrome P450 3A4 (Homo sapiens, UniProt P08684); test: Inhibition of CYP3A4 in human HL-7702 cells assessed as reduction in metabolic conversion of nifedipine to dehydronifedipine by LC-MS/MS method; assay type: ADME, cell-based
Sequence of Cytochrome P450 3A4 (P08684 whole entry): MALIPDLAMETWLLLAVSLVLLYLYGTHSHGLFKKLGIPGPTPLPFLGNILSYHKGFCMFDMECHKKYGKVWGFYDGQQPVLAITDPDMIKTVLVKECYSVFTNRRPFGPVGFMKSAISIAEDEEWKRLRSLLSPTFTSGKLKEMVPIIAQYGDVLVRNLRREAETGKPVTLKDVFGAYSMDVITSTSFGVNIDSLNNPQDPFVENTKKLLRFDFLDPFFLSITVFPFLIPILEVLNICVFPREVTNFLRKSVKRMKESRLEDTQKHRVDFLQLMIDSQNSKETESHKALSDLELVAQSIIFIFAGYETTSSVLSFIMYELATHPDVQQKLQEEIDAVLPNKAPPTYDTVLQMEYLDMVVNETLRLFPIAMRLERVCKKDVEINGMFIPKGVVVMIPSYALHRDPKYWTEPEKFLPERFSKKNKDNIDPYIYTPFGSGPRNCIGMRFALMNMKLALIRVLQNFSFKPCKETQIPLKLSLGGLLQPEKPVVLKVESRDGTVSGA

CYP3A4 = CYP3A4 (Homo sapiens, UniProt P08684); test: Inhibition of CYP3A4 in human HL-7702 cells assessed as assessed as remaining enzyme activity by measuring reduction in metabolic conversion of nifedipine to dehydronifedipine at 10 uM by LC-MS/MS method; assay type: ADME, cell-based; conditions: probe nifedipine, read-out: Activity
Sequence of CYP3A4 (P08684 whole entry): as above

L02 [8] = test: Effect on APAP-induced depletion of GSH levels in human HL-7702 cells assessed as GSH level at 0.1 uM by colorimetric method (reference value: 59.68 +/- 1.16 au); assay type: functional
L02 [9] = test: Hepatoprotective activity against APAP-induced cell injury in human HL-7702 cells assessed as survival rate at 2.5 uM pre-incubated for 24 hrs before APAP addition and measured 6 hrs post APAP challenge by MTT assay (reference value: 60.49 +/- 0.28%); assay type: functional; conditions: read-out: Survival
L02 [10] = test: Effect on APAP-induced depletion of GSH levels in human HL-7702 cells assessed as GSH level at 10 uM by colorimetric method (reference value: 59.68 +/- 1.16 au); assay type: functional
L02 [11] = test: Hepatoprotective activity against APAP-induced cell injury in human HL-7702 cells assessed as survival rate at 10 uM pre-incubated for 24 hrs before APAP addition and measured 6 hrs post APAP challenge by MTT assay (reference value: 60.49 +/- 0.28%); assay type: functional; conditions: read-out: Survival
L02 [12] = test: Hepatoprotective activity against APAP-induced cell injury in human HL-7702 cells assessed as survival rate at 0.625 uM pre-incubated for 24 hrs before APAP addition and measured 6 hrs post APAP challenge by MTT assay (reference value: 60.49 +/- 0.28%); assay type: functional; conditions: read-out: Survival

Structure (SMILES) | Activity (L02 [1]) | viability at 10 µM (L02 [4]) [%] | Activity (L02 [7]) | also measured
CC1(C)CC[C@]2(C(=O)O)CC[C@]3(C)C(=CC[C@@H]4[C@@]5(C)CCC(=O)C(C)(C)[C@@H]5CC[C@]43C)[C@@H]2C1 | Active |  |  | 
CC1(C)CC[C@]2(C(=O)O)CC[C@]3(C)C(=C2C1)C=C[C@@H]1[C@@]2(C)CC[C@H](O)C(C)(C)[C@@H]2CC[C@]13C | Active |  |  | 
CC1(C)CC[C@]2(C(=O)O)[C@H](O)C[C@]3(C)C(=CC[C@@H]4[C@@]5(C)CC[C@H](O)C(C)(C)[C@@H]5CC[C@]43C)[C@@H]2C1 | Active |  |  | 
CC1(C)CC[C@H]2C(=O)C[C@]3(C)C(=CC[C@@H]4[C@@]5(C)CC[C@H](O)C(C)(C)[C@@H]5CC[C@]43C)[C@@H]2C1 |  | 78.3 to 80 | inactive | Activity (L02 [2]): Active; Activity (L02 [3]): 55.62 a.u.; viability at 1.25 µM (L02 [5]): 68.6%; viability at 5 µM (L02 [6]): 76%; Activity (Cytochrome P450 3A4): Dose-dependent effect; activity at 10 µM (CYP3A4): 66%; Activity (L02 [8]): 55.93 a.u.; viability at 2.5 µM (L02 [9]): 74.5%; Activity (L02 [10]): 54.37 a.u.; viability at 10 µM (L02 [11]): 80.1%; viability at 0.625 µM (L02 [12]): 66.8%
CC1(C)CC[C@]2(C(=O)O)CC[C@]3(C)C(=CC(=O)[C@@H]4[C@@]5(C)CC[C@H](O)C(C)(C)[C@@H]5CC[C@]43C)[C@@H]2C1 | Active |  |  | 
CC1(C)CC[C@]2(C(=O)O)CC[C@]3(C)C(=CC[C@@H]4[C@@]5(C)CC[C@H](O)C(C)(C)[C@@H]5CC[C@]43C)[C@@H]2C1 [OLEANOLIC_ACID] |  | 68.5 |  | 
CC1(C)CC[C@H]2CC[C@]3(C)C(=CC[C@@H]4[C@@]5(C)CC[C@H](O)C(C)(C)[C@@H]5CC[C@]43C)[C@@H]2C1 | Active | 71.6 | inactive | Activity (L02 [2]): Active
CC1(C)CC[C@H]2C(=O)C[C@]3(C)[C@@]4(O[C@@H]4C[C@@H]4[C@@]5(C)CC[C@H](O)C(C)(C)[C@@H]5CC[C@]43C)[C@@H]2C1 | Active | 65.7 | inactive | 
CC1(C)CC[C@H]2C(=O)C[C@]3(C)C(=CC[C@@H]4[C@@]5(C)CCC(=O)C(C)(C)[C@@H]5CC[C@]43C)[C@@H]2C1 | Active | 71.2 | inactive | Activity (L02 [2]): Active
CC1(C)CC[C@@]23CC[C@@]4(C)[C@]5(C)CC[C@H]6C(C)(C)[C@@H](O)CC[C@]6(C)C5=CC(=O)[C@]4(OC2=O)[C@@H]3C1 | Active |  |  | 
CC1(C)CC[C@]2(C(=O)O)CC[C@]3(C)C(=CC=C4[C@@]5(C)CC[C@H](O)C(C)(C)[C@@H]5CC[C@]43C)[C@@H]2C1 | Active |  |  | 
CC1(C)CC[C@H]2[C@H](O)C[C@]3(C)C(=CC[C@@H]4[C@@]5(C)CC[C@H](O)C(C)(C)[C@@H]5CC[C@]43C)[C@@H]2C1 | Active | 65.5 | inactive | 
CC1(C)CC[C@@H]2C(=O)C[C@]3(C)C(=CC[C@@H]4[C@@]5(C)CC[C@H](O)C(C)(C)[C@@H]5CC[C@]43C)[C@@H]2C1 |  | 76 to 80 |  | 
CC(=O)N[C@@H](CS)C(=O)O [ACETYLCYSTEINE] | Active |  |  | Activity (L02 [10]): 102.49 a.u.; viability at 10 µM (L02 [11]): 82.3%
CC1(C)CC[C@]2(CO)CC[C@]3(C)C(=CC[C@@H]4[C@@]5(C)CC[C@H](O)C(C)(C)[C@@H]5CC[C@]43C)[C@@H]2C1 | Active |  |  | 
CC(=O)O[C@H]1CC[C@]2(C)[C@H]3CC=C4[C@@H]5CC(C)(C)CC[C@H]5C(=O)C[C@@]4(C)[C@]3(C)CC[C@H]2C1(C)C | Active | 67.1 | inactive | 
CC1(C)CC[C@H]2[C@@H](O)C[C@]3(C)C(=CC[C@@H]4[C@@]5(C)CC[C@H](O)C(C)(C)[C@@H]5CC[C@]43C)[C@@H]2C1 | Active | 62.9 | inactive | 

Reference: ChEMBL document CHEMBL4052781, “Discovery and structure-activity relationship of auriculatone: A potent hepatoprotective agent against acetaminophen-induced liver injury” (Bioorg Med Chem Lett, 2017)
